Experimental data published in patent publication US20240293466A1, “DIFFERENTIAL CXCR4 […] HEMATOPOIETIC PROGENITOR CELLS VERSUS STEM CELLS DIRECTS HOMING AND LONG-TERM ENGRAFTMENT” (priority 2021, published 2024).

What was measured:
CXCR4 = CXCR4 (Homo sapiens, UniProt P61073)
Procedure: 6- to 14-week-old NOD.Cg-Prkdc^scid Il2rg^tm1Wjl/SzJ (NSG) mice were used in UCB- and MPB-derived HSPC transplant experiments. Mice were irradiated with 280 cGy prior to transplant. For homing experiments, each mouse received 3×10^6 CD34+cells and 16-22 hours post-injection, the mice were sacrificed and bone marrow from the femurs was analyzed for human cell content. For long-term engraftment experiments, mice received limiting dilution CD34+or CD34+CD38−HSPC doses. IV injections were done by injecting HSPC in 200-250 μL via tail vein and IBM injections were done by injecting HSPC in 10 μL into the femur.
The cells were washed with PBS and transplanted into NSG mice for homing experiments.
CD34+cells were transduced with a blue fluorescent protein (BFP) encoding LV vector and the CD34+CD38+BFP+HPC were sorted by flow cytometry.

VLA-4 = target: T1, VLA-4 (Homo sapiens, UniProt P05556+P13612); assay: Homing of CD34+CD38+ HPC into bone marrow of NSG mice after VLA-4 blockade; type: in vivo; conditions: IV or IBM delivery; HPC pre-treated with 1 μM BIO5192
T1 construct: endogenous in cells; host or cells: human G-CSF mobilized peripheral blood CD34+CD38+BFP+ HPC, sorted after transduction with a BFP-only LV vector
Procedure: (§1) Mice were irradiated with 280 cGy prior to transplant.
CD34+HSPC were resuspended in PBS containing 1 μM BIO5192 (Tocris, 5051) and incubated on ice for 20 minutes.

[1] = tested on: MPB CD34+ HSPC / CD34+CD38- cells; assay: Gene transfer efficiency of LV vectors in HSPC; type: cell-based, human
Procedure: UCB and G-CSF MPB were obtained and CD34+HSPC were isolated by magnetic selection with Indirect CD34 Microbead kit, human (Miltenyi, 130-046-701). CD34+purity was >95% as confirmed by flow cytometry. CD34+CD38−cells were isolated from G-CSF MPB by magnetic selection with CD34+CD38−Isolation Kit, human (Miltenyi, 130-114-822) and cryopreserved. Thawed CD34+ or CD34+CD38−cells were cultured in X-VIVO 10 (Lonza BE02-055Q) or SCGM (CellGenix 20806-0500) supplemented with 2% human serum albumin, 100 ng/mL TPO, 300 ng/mL SCF, and 300 ng/mL FLT3-L (all cytokines purchased from Peprotech) at a cell density of 2-5×10^6 CD34+cells/mL. Media was supplemented with Birb 796 (600 nM) (Selleckchem) throughout culture and Prostaglandin E2 (10 μM) (Cayman) at plating, transduction, and 1 hour before harvest. Cells were transduced with a lentiviral vector in culture for 36-42 hours where indicated. CD34+HSPC were transduced at a final concentration of 5×10^7-1×10^8 IU/mL. Following culture, CD34+HSPC were harvested and washed with PBS, resuspended in PBS, and used in in vivo or in vitro experiments, as described below.

[2] = tested on: CD34+CD38- HSC-enriched cells; assay: Long-term (24 week) engraftment of transduced CD34+CD38- cells in NSG mice; type: in vivo, human; conditions: 24 weeks
Text: as §1
At 12 weeks following transplant, bone marrow was harvested via aspirate of the femur for in vivo engraftment analysis. For animals that received IBM injections into one femur, the non-injected alternate femur was aspirated. For 24 week and homing analysis, mice were sacrificed, and bone marrow was harvested from both the rear and forelimbs. Cells were stained fresh with the following antibodies: PerCP anti-human CD45 (BioLegend 304026), Anti-human CD33 PE-Cy7 (eBioscience 25-0338-42), APC-Cy7 Mouse Anti-Human CD19 (BD 557791), Anti-Human CD3 PE (BD BioSciences 555340), and APC Mouse Anti-Human CD34 (BD BioScience 555824). Red bloods cells were lysed after staining using red blood cell lysis buffer.
Next, CD34+CD38−HSC-enriched cells were sorted, transduced with GFP LV^CXCR4 vector or GFP LV control vector, and transplanted them IV or IBM in two limiting dilutions to irradiated NSG mice to assess engraftment of the long-term repopulating HSC at 6 months post-transplant (FIG. 5F-5G). […] The slightly higher engraftment of untransduced IV transplanted cells (FIGS. 5F and 10C) was likely because LV preparations often contain some defective viral particles, which, like VLP, would deliver CXCR4 protein but not result in an effective transduction (transgene transfer or GFP+cells). […]

[3] = tested on: CD34+CD38- HSC-enriched cells; assay: Homing of CD34+CD38-BFP+ cells mixed with CD34+CD38+ HPC in NSG mice; type: in vivo, human; conditions: 20-22 hours
Text: as §1
An alternative explanation for the competitive homing and engraftment advantage of HPC could be that they comprise the vast majority of CD34+HSPC (98-99%), while HSC are a small minority. It was experimentally conferred the HSC-enriched CD34+CD38− population with slightly higher CXCR4 expression than the CD34+CD38+HPC and assessed homing (FIG. 3D). The CD34+HSPC were transduced with a BFP-CXCR4-encoding LV vector or a BFP-encoding LV control vector and CD34+CD38−BFP+HSC-enriched cells were sorted along with untransduced CD34+CD38+BFP−HPC. CXCR4 expression on these populations was assessed before transplant. In control cells, CXCR4 expression on the more primitive CD34+CD38−cells was much lower (MFI 16,930) than on CD34+CD38+HPC (MFI 35,098) (FIG. 3E), consistent with prior data (see, e.g., FIG. 2D). […] The sorted BFP-HPC population was then mixed with the BFP+CD34+CD38−CXCR4^high HSC-enriched cell population in ratios seen in CD34+HSPC prior to sorting, and transplanted them either IV or IBM, and homing of the CD34+CD38−BFP+CXCR4^high HSC-enriched cells was assessed. Control CD34+CD38−BFP+cells were also mixed with CD34+CD38+BFP−HPC and transplanted IV or IBM (FIG. 3D) and their homing into bone marrow was assessed. […]

[4] = tested on: CD34+CD38- HSC-enriched cells; assay: CXCR4 expression (flow cytometry MFI) on sorted transduced cells at time of transplant; type: cell-based, human; conditions: CD34+CD38-BFP+ cells, 72 hours after gene transfer
Text: All LV vectors were packaged using the Gag-Pol, Rev and VSV-G envelope plasmids. All vectors were under the control of the MNDU3 promoter. The GFP LV construct was pRRL.SIN.cPPT.MNDU3.eGFP.WPRE. The BFP LV construct was designed by replacing the GFP cDNA in pRRL.SIN.cPPT.MNDU3.eGFP.WPRE.with mTag2BFP. The BFP-CXCR4 LV was pRRL.SIN.cPPT.MNDU3.mTag2BFP-CXCR4.WPRE. All lentiviral vectors were packaged in HEK 293T (ATCC) cells and vector titers determined in the murine erythroleukemia (MEL) (ATCC) cells as previously described (Perumbeti et al., Blood, 2009; Urbinati et al., Mol Ther, 2009; Arumugam et al., Mol Ther, 2009). […]
An alternative explanation for the competitive homing and engraftment advantage of HPC could be that they comprise the vast majority of CD34+HSPC (98-99%), while HSC are a small minority. It was experimentally conferred the HSC-enriched CD34+CD38− population with slightly higher CXCR4 expression than the CD34+CD38+HPC and assessed homing (FIG. 3D). […] CXCR4 expression on these populations was assessed before transplant. […] The sorted BFP-HPC population was then mixed with the BFP+CD34+CD38−CXCR4^high HSC-enriched cell population in ratios seen in CD34+HSPC prior to sorting, and transplanted them either IV or IBM, and homing of the CD34+CD38−BFP+CXCR4^high HSC-enriched cells was assessed. […]

Sequence of CXCR4 (P61073 whole entry): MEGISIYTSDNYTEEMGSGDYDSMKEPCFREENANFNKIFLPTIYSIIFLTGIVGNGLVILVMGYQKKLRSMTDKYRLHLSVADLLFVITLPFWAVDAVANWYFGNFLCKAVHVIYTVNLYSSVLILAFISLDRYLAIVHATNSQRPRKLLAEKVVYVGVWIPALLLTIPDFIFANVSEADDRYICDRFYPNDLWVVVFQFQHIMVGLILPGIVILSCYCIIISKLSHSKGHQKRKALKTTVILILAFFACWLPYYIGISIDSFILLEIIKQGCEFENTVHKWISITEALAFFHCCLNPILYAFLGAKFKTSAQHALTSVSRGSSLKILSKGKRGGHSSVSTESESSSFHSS
T1 sequence (P13612 34-1032): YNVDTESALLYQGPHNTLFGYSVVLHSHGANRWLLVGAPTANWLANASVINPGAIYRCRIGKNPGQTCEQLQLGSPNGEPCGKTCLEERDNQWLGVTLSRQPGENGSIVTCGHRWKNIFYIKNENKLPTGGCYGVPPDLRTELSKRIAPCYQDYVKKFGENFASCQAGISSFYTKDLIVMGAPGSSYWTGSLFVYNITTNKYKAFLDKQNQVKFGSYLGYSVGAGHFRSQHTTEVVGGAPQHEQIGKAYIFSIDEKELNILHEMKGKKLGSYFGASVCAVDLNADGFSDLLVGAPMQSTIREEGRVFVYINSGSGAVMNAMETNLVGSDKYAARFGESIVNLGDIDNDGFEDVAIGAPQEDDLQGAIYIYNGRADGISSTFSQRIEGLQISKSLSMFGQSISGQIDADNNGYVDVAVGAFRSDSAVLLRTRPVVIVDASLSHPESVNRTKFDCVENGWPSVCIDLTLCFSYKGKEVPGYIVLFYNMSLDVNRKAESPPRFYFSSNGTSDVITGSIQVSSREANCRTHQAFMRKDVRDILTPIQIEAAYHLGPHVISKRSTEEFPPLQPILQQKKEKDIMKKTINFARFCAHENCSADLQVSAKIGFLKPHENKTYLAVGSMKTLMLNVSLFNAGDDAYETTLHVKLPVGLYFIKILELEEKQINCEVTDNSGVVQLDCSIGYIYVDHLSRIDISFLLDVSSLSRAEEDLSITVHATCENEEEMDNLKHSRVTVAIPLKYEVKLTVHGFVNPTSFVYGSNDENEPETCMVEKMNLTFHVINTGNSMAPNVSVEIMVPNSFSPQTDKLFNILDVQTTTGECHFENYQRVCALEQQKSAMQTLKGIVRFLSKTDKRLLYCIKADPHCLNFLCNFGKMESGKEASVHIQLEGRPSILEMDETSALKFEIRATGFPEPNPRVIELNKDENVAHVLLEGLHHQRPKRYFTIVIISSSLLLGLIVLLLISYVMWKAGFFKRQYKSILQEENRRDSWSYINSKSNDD
T1 sequence (P05556 21-798): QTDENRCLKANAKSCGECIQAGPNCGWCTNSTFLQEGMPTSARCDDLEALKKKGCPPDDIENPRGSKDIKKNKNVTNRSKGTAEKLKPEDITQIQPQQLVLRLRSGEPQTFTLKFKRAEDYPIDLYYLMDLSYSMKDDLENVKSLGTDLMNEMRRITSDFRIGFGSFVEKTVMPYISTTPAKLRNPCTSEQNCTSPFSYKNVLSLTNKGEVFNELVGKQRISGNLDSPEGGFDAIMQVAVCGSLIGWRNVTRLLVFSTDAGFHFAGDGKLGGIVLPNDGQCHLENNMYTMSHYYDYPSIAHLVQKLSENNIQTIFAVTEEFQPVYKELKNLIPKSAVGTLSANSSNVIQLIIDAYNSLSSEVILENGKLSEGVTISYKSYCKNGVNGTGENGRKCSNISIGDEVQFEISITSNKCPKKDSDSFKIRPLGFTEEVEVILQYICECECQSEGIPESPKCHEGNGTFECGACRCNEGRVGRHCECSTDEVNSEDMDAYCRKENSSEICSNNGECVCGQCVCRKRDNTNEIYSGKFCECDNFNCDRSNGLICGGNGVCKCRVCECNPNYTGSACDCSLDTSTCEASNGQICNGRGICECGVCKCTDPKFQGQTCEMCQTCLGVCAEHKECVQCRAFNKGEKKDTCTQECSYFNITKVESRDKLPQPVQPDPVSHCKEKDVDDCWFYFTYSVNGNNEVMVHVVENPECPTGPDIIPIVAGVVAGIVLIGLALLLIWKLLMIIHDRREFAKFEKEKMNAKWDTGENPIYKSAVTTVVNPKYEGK

c1cc(CN2CCCNCCNCCCNCC2)ccc1CN1CCCNCCNCCCNCC1 [AMD3100]
human HPC content in the injected femur (IF) (CXCR4; IBM delivery, CD34+CD38+BFP+ HPC pre-treated with 100 ug/mL AMD3100, reduced to homing levels of IV delivery or nonIF): significantly reduced | homing of IV injected cells (CXCR4; IV delivery, HPC pre-treated with AMD3100): note blocked

Cc1ccccc1NC(=O)Nc1ccc(CC(=O)N(C)[C@@H](CC(C)C)C(=O)NCC[C@H](NC(=O)[C@@H]2CCCN2S(=O)(=O)c2cc(Cl)cc(Cl)c2)C(=O)O)cc1 [BIO5192]
CD34+38+ HPC homing pattern vs corresponding controls (VLA-4): did not alter

pRRL.SIN.cPPT.MNDU3.eGFP.WPRE [GFP LV]
gene transfer efficiency ([1]; CD34+CD38- HSC-enriched cells, experiment of FIG. 4): 69% | gene transfer ([1]; CD34+CD38- cells, homing/engraftment experiment of FIGS. 5 and 10): 60% | gene transfer ([1]; MPB CD34+HSPC, experiment of FIG. 1): 63-66% | lineage repopulation [2]: full multilineage repopulation

pRRL.SIN.cPPT.MNDU3.mTag2BFP-CXCR4.WPRE [BFP-CXCR4 LV vector]
homing of CD34+CD38- cells to bone marrow ([3]; IV administration, mixed with majority of CD34+38+ HPC): higher homing levels | homing of CD34+CD38- cells to bone marrow ([3]; direct IBM transplantation, mixed with majority of HPC): remarkably improved homing advantage | CXCR4 expression MFI [4]: 37,453
